Results: US9394233B2, “ROS-activated compounds as selective anti-cancer therapeutics” (University of Cincinnati, priority 2012, dated 2016)

How the values were obtained:
NCI-60 cell panel = test: NCI-60 cell panel, Sulforhodamine B growth inhibition; format: cell-based
Description: (§1) Compounds 25 and 9 were evaluated for effects on the viability of the cell lines in the NCI-60 cell panel. […] Data is reported as growth inhibition GI50, rather than IC50, to reflect the change in cell counts relative to the starting number of cells.

MA9.3 AML cells = test: AML cytotoxicity, MTT assay on MA9.3 AML cell line; format: cell-based, human; details: Homo sapiens, read-out: IC50 against MA9.3 AML cells
Text: (§2) To assess the anti-cancer activity against AML, transformed cells were compared to closely related, non-transformed counterparts. In the case of AML, the generally accepted non-transformed cell of origin is the human CD34+ blood stem/progenitor cell. Assessing potency against normal blood stem cells is important since, without selective cytotoxicity, an agent will yield reduced efficacy and therapeutic potential. […] Therefore, a comparison of current agents and the ROS-activated compounds disclosed herein was carried out. (FIG. 3). Cytotoxicity was measured via MTT assay on CD34+ blood stem/progenitor cells (grey lines) and on the MA9.3 AML cell line (black lines), which was derived from the transformation of human CD34+ cells by introduction of the leukemia oncogene MLL-AF9.

SR-91 = test: NCI-60 Sulforhodamine B growth inhibition, SR-91; format: cell-based; details: SR-91, acute lymphoblastic leukemia model
Description: as §1
(§3) Growth inhibition pattern induced by 25 and 9 based on the type of cancer was also analyzed. […] The majority of leukemia and renal cancer cell lines were above the median, indicating enhanced sensitivity to ROS-activating compounds. The current results further substantiate renal carcinoma as a potential target.

ACHN = test: Sulforhodamine B total protein content assay, ACHN; format: cell-based; details: Homo sapiens; ACHN renal cancer cells
Description: (§4) The sensitivity of renal cancer cells to treatment with compound 25 was investigated. Compound 25 was evaluated for effects on viability using a sulforhodamine B total protein content assay at the NCI Developmental Therapeutics Program. The method uses total protein content and was developed by Monks et al., Feasibility of a high-flux anticancer drug screen using a diverse panel of cultured human tumor cell lines, J. Natl. Cancer Inst. 83:757-66 (1991). Briefly, cells are treated with compound 25 and then fixed to the plate surface. The number of cells is proportional to the relative amount of protein as measured by sulforhodamine B. Seven renal cancer cell lines were examined: 786-0, A498, ACHN, CAKI-1, RXF 393, SN12C, and UO-31. Data at the NCI was then fit to sigmoid and the IC50 and fitting error determined

RPMI-8226 = test: NCI-60 Sulforhodamine B growth inhibition, RPMI-8226; format: cell-based; details: Homo sapiens; RPMI-8226, plasmacytoma and myeloma cell line
Description: as §1, §3

renal cancer cells = test: Sulforhodamine B total protein content assay, renal cancer cell lines (NCI); format: cell-based; details: Homo sapiens; median over seven renal cancer cell lines
Description: as §4

SN12C = test: Sulforhodamine B total protein content assay, SN12C; format: cell-based; details: Homo sapiens; SN12C renal cancer cells
Description: as §4

MOLT-4 = test: NCI-60 Sulforhodamine B growth inhibition, MOLT-4; format: cell-based; details: Homo sapiens; MOLT-4, ALL model line
Description: as §1, §3

HeLa cells = test: HeLa cell viability, MTT assay; format: cell-based; details: Homo sapiens, 50% reduction in percent of viable HeLa cells, read-out: IC50 against HeLa Cells
Description: Table 1 sets forth ROS-Activated compounds of the present invention, together with their IC50 values corresponding to a 50% reduction in the percent of viable HeLa cells in vitro as measured via MTT assay.
All synthesized compounds were purified to greater than 98% purity prior to cell testing. HeLa cell viability assays were performed using an MTT assay.
The general structure of the ROS-activated compounds disclosed herein was probed to determine how positions in the structure alter potency in aqueous media. Compounds were screened against HeLa cells to determine IC50 values. Cell viability was monitored by an MTT dye that forms a purple formazan product in viable cells that are undergoing metabolism. […] Errors reported are between two separate experiments; independent curve-fitting had r greater than 0.95).

CAKI-1 = test: Sulforhodamine B total protein content assay, CAKI-1; format: cell-based; details: Homo sapiens; CAKI-1 renal cancer cells
Description: as §4

[1] = test system: human CD34+ blood stem/progenitor cells; test: Cytotoxicity, MTT assay on CD34+ blood stem/progenitor cells; format: cell-based; details: Homo sapiens, normal blood stem cells, read-out: IC50 against CD34+ blood stem/progenitor cells
Text: as §2

IC50 (ACHN): 360 ± 90 nM | IC50 (SN12C): 21 ± 1.2 µM | IC50 (HeLa cells): 11 µM | IC50 (CAKI-1): 370 ± 40 nM
SMILES: Oc1ccc(OCCN(CCOc2ccc(O)cc2)c2ccccc2)cc1 [Compound 25, 4,4′-(2,2′-(phenylazanediyl)bis(ethane-2,1-diyl)bis(oxy))diphenol]
range of GI50 values (NCI-60 cell panel; distribution of GI50 over NCI-60 panel): 55 fold | GI50 (NCI-60 cell panel; median over NCI-60 panel, Sulforhodamine B): 3.9 µM | IC50 (MA9.3 AML cells): 3000 ± 200 nM | GI50 (SR-91): 470 nM | GI50 (RPMI-8226): 3.8 µM | IC50 (renal cancer cells): 1800 nM | GI50 (MOLT-4): 1300 nM | IC50 [1]: 16 ± 1 µM
